Publication PMC6979384, “Characterization of the plant homeodomain (PHD) reader family for their histone tail interactions” (Epigenetics & Chromatin, 2020)

What was measured:
Assay in all cases: Histone peptide microarray
Format in all cases: binding, human
Conditions in all cases: sheet "Array Heatmap"
KDM4C (TTP) = test system: KDM4C (TTP)
Method in brief: (§1)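 GST-tagged PHD finger readers were expressed, purified and applied at 0.5 μM to a microarray of 293 synthetic histone peptides carrying single or combinatorial PTMs, using an optimized protocol. Binding signals are averages with standard deviation from 4 replicates.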

MLL5 = test system: MLL5
Method in brief: as §1

PHF2 = test system: PHF2
Method in brief: as §1

KDM7A = test system: KDM7A
Method in brief: as §1

BPTF (PB) = test system: BPTF (PB)
Method in brief: as §1

TAF3 = test system: TAF3
Method in brief: as §1

TRIM66 (PB) = test system: TRIM66 (PB)
Method in brief: as §1

PHF8 = test system: PHF8
Method in brief: as §1

CHD5 (PPCC) = test system: CHD5 (PPCC)
Method in brief: as §1

AIRE (PP) = test system: AIRE (PP)
Method in brief: as §1

KDM5B (3) = test system: KDM5B (3)
Method in brief: as §1

ING3 = test system: ING3
Method in brief: as §1

RAG2 = test system: RAG2
Method in brief: as §1

PHF13 = test system: PHF13
Method in brief: as §1

ING1 = test system: ING1
Method in brief: as §1

KDM5A (3) = test system: KDM5A (3)
Method in brief: as §1

KDM5A (1) = test system: KDM5A (1)
Method in brief: as §1

MORC3 (CW) = test system: MORC3 (CW)
Method in brief: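 Purified PHD finger domains fused to GST are screened against 293 synthetic histone peptides bearing one or several post-translational modifications. The protein is used at 0.5 μM, and the signal from four replicate arrays is averaged, with standard deviation given.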

KDM5B (1) = test system: KDM5B (1)
Method in brief: as §1

BAZ2B = test system: BAZ2B
Method in brief: as §1

ING2 = test system: ING2
Method in brief: as §1

SP140L = test system: SP140L
Method in brief: as §1

DPF2 (PPC2W2) = test system: DPF2 (PPC2W2)
Method in brief: as §1

PHF21A = test system: PHF21A
Method in brief: as §1

PHRF1 (RP) = test system: PHRF1 (RP)
Method in brief: as §1

CHD4 (PPCC) = test system: CHD4 (PPCC)
Method in brief: as §1

ING4 = test system: ING4
Method in brief: as §1

DIDO1 = test system: DIDO1
Method in brief: as §1

ING5 = test system: ING5
Method in brief: as §1

PHF23 = test system: PHF23
Method in brief: as §1

CHD5 (PCC) = test system: CHD5 (PCC)
Method in brief: as §1

H3K23ac (1-32): H3 1-32 was tested, and the “Array Heatmap value (peptide array signal)” value (“Array Heatmap value” for short) (KDM4C (TTP); KDM4C (TTP), each array performed twice, total n = 4) was 0.4876, the “Array Heatmap value” value (MLL5; MLL5, each array performed twice, total n = 4) was 0.5116 and the “Array Heatmap value” value (PHF2; PHF2, each array performed twice, total n = 4) was 0.4393. The “Array Heatmap value” value (KDM7A; KDM7A, each array performed twice, total n = 4) was 0.3346, the “Array Heatmap value” value (BPTF (PB); BPTF (PB), each array performed twice, total n = 4) was 0.3332 and the “Array Heatmap value” value (TAF3; TAF3, each array performed twice, total n = 4) was 0.2562. The “Array Heatmap value” value (TRIM66 (PB); TRIM66 (PB), each array performed twice, total n = 4) was 0.6504, the “Array Heatmap value” value (PHF8; PHF8, each array performed twice, total n = 4) was 0.3314 and the “Array Heatmap value” value (CHD5 (PPCC); CHD5 (PPCC), each array performed twice, total n = 4) was 0.5376. The “Array Heatmap value” value (AIRE (PP); AIRE (PP), each array performed twice, total n = 4) was 0.5525, the “Array Heatmap value” value (KDM5B (3); KDM5B (3), each array performed twice, total n = 4) was 0.4657 and the “Array Heatmap value” value (ING3; ING3, each array performed twice, total n = 4) was 0.4476. The “Array Heatmap value” value (RAG2; RAG2, each array performed twice, total n = 4) was 0.2372, the “Array Heatmap value” value (PHF13; PHF13, each array performed twice, total n = 4) was 0.5924 and the “Array Heatmap value” value (ING1; ING1, each array performed twice, total n = 4) was 0.5079. For the same substance, the “Array Heatmap value” value (KDM5A (3); KDM5A (3), each array performed twice, total n = 4) was 0.4863, the “Array Heatmap value” value (KDM5A (1); KDM5A (1), each array performed twice, total n = 4) was 0.4665 and the “Array Heatmap value” value (MORC3 (CW); MORC3 (CW), each array performed twice, total n = 4) was 0.4909. The “Array Heatmap value” value (KDM5B (1); KDM5B (1), each array performed twice, total n = 4) was 0.696, the “Array Heatmap value” value (BAZ2B; BAZ2B, each array performed twice, total n = 4) was 0.4309 and the “Array Heatmap value” value (ING2; ING2, each array performed twice, total n = 4) was 0.596. For the same substance, the “Array Heatmap value” value (SP140L; SP140L, each array performed twice, total n = 4) was 0.3597, the “Array Heatmap value” value (DPF2 (PPC2W2); DPF2 (PPC2W2), each array performed twice, total n = 4) was 0.7046 and the “Array Heatmap value” value (PHF21A; PHF21A, each array performed twice, total n = 4) was 0.4363. For the same substance, the “Array Heatmap value” value (PHRF1 (RP); PHRF1 (RP), each array performed twice, total n = 4) was 0.68, the “Array Heatmap value” value (CHD4 (PPCC); CHD4 (PPCC), each array performed twice, total n = 4) was 0.5377 and the “Array Heatmap value” value (ING4; ING4, each array performed twice, total n = 4) was 0.4368. The “Array Heatmap value” value (DIDO1; DIDO1, each array performed twice, total n = 4) was 0.6401, the “Array Heatmap value” value (ING5; ING5, each array performed twice, total n = 4) was 0.3453 and the “Array Heatmap value” value (PHF23; PHF23, each array performed twice, total n = 4) was 0.526. The “Array Heatmap value” value (CHD5 (PCC); CHD5 (PCC), each array performed twice, total n = 4) was 0.6958.

H3K23me1 15-34: H3 15-34 was tested, and the “Array Heatmap signal, KDM4C (TTP)” value (KDM4C (TTP); GST-tagged KDM4C (TTP), arrays performed twice, total replicate number n = 4) was 0.4583, the “Array Heatmap signal, MLL5” value (MLL5; GST-tagged MLL5, arrays performed twice, total replicate number n = 4) was 0.5166 and the “Array Heatmap signal, PHF2” value (PHF2; GST-tagged PHF2, arrays performed twice, total replicate number n = 4) was 0.3956. The “Array Heatmap signal, KDM7A” value (KDM7A; GST-tagged KDM7A, arrays performed twice, total replicate number n = 4) was 0.3872, the “Array Heatmap signal, BPTF (PB)” value (BPTF (PB); GST-tagged BPTF (PB), arrays performed twice, total replicate number n = 4) was 0.3041 and the “Array Heatmap signal, TAF3” value (TAF3; GST-tagged TAF3, arrays performed twice, total replicate number n = 4) was 0.2405. For the same substance, the “Array Heatmap signal, TRIM66 (PB)” value (TRIM66 (PB); GST-tagged TRIM66 (PB), arrays performed twice, total replicate number n = 4) was 0.5248, the “Array Heatmap signal, PHF8” value (PHF8; GST-tagged PHF8, arrays performed twice, total replicate number n = 4) was 0.3239 and the “Array Heatmap signal, CHD5 (PPCC)” value (CHD5 (PPCC); GST-tagged CHD5 (PPCC), arrays performed twice, total replicate number n = 4) was 0.4785. The “Array Heatmap signal, AIRE (PP)” value (AIRE (PP); GST-tagged AIRE (PP), arrays performed twice, total replicate number n = 4) was 0.4449, the “Array Heatmap signal, KDM5B (3)” value (KDM5B (3); GST-tagged KDM5B (3), arrays performed twice, total replicate number n = 4) was 0.4273 and the “Array Heatmap signal, ING3” value (ING3; GST-tagged ING3, arrays performed twice, total replicate number n = 4) was 0.3997. For the same substance, the “Array Heatmap signal, RAG2” value (RAG2; GST-tagged RAG2, arrays performed twice, total replicate number n = 4) was 0.2067, the “Array Heatmap signal, PHF13” value (PHF13; GST-tagged PHF13, arrays performed twice, total replicate number n = 4) was 0.5337 and the “Array Heatmap signal, ING1” value (ING1; GST-tagged ING1, arrays performed twice, total replicate number n = 4) was 0.468. For the same substance, the “Array Heatmap signal, KDM5A (3)” value (KDM5A (3); GST-tagged KDM5A (3), arrays performed twice, total replicate number n = 4) was 0.3565, the “Array Heatmap signal, KDM5A (1)” value (KDM5A (1); GST-tagged KDM5A (1), arrays performed twice, total replicate number n = 4) was 0.4342 and the “Array Heatmap signal, MORC3 (CW)” value (MORC3 (CW); GST-tagged MORC3 (CW), arrays performed twice, total replicate number n = 4) was 0.2751. The “Array Heatmap signal, KDM5B (1)” value (KDM5B (1); GST-tagged KDM5B (1), arrays performed twice, total replicate number n = 4) was 0.6704, the “Array Heatmap signal, BAZ2B” value (BAZ2B; GST-tagged BAZ2B, arrays performed twice, total replicate number n = 4) was 0.4158 and the “Array Heatmap signal, ING2” value (ING2; GST-tagged ING2, arrays performed twice, total replicate number n = 4) was 0.5717. For the same substance, the “Array Heatmap signal, SP140L” value (SP140L; GST-tagged SP140L, arrays performed twice, total replicate number n = 4) was 0.3205, the “Array Heatmap signal, DPF2 (PPC2W2)” value (DPF2 (PPC2W2); GST-tagged DPF2 (PPC2W2), arrays performed twice, total replicate number n = 4) was 0.6371 and the “Array Heatmap signal, PHF21A” value (PHF21A; GST-tagged PHF21A, arrays performed twice, total replicate number n = 4) was 0.4373. For the same substance, the “Array Heatmap signal, PHRF1 (RP)” value (PHRF1 (RP); GST-tagged PHRF1 (RP), arrays performed twice, total replicate number n = 4) was 0.3534, the “Array Heatmap signal, CHD4 (PPCC)” value (CHD4 (PPCC); GST-tagged CHD4 (PPCC), arrays performed twice, total replicate number n = 4) was 0.5163 and the “Array Heatmap signal, ING4” value (ING4; GST-tagged ING4, arrays performed twice, total replicate number n = 4) was 0.3978. For the same substance, the “Array Heatmap signal, DIDO1” value (DIDO1; GST-tagged DIDO1, arrays performed twice, total replicate number n = 4) was 0.5926, the “Array Heatmap signal, ING5” value (ING5; GST-tagged ING5, arrays performed twice, total replicate number n = 4) was 0.3097 and the “Array Heatmap signal, PHF23” value (PHF23; GST-tagged PHF23, arrays performed twice, total replicate number n = 4) was 0.4553. The “Array Heatmap signal, CHD5 (PCC)” value (CHD5 (PCC); GST-tagged CHD5 (PCC), arrays performed twice, total replicate number n = 4) was 0.7691.
